This is an account of results in US7714009B2, “Nitrogen-containing fused heterocyclic compounds” (Takeda Pharmaceutical Company Limited, priority 2003, dated 2010).

This test concerns the target T1, human CRF receptor (Homo sapiens, UniProt P34998).
T1 construct: expressed in transfected cells; host or cells: CHO cells (membrane fraction)
T1 sequence (P34998 24-415): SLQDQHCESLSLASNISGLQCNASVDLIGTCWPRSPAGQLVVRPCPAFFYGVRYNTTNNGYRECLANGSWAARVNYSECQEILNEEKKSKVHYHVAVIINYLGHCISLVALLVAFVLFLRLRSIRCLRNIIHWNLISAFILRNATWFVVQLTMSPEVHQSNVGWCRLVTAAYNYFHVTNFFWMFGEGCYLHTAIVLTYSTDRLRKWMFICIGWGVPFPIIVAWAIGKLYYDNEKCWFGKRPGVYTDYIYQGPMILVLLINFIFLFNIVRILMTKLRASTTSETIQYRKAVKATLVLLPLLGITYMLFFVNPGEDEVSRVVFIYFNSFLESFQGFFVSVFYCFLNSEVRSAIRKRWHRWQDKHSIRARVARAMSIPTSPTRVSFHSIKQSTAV
The test is described as follows: Measurement of Corticotropin-Releasing Factor (CRF) Binding Inhibitory Rate. Conditions: 1000 nM test compound; human CRF receptor expressing CHO cellular membrane fraction; 50 pM 125I-CRF; room temperature 1 hour. On the procedure: Measurement of Corticotropin-Releasing Factor (CRF) Binding Inhibitory Rate
A receptor binding experiment was carried out using a human CRF receptor expressing CHO cellular membrane fraction and sheep CRF, [^125I]-tyr^0(^125I-CRF). 1000 nM of a test compound was incubated with 1 μg of human CRF receptor expressing CHO cellular membrane fraction and 50 pM of ^125I-CRF in a binding assay buffer (50 mM Tris-HCl, 5 mM EDTA, 10 mM MgCl2, 0.05% CHAPS, 0.1% BSA, 0.5 mM PMSF, […] pepstatin, 20 μg/ml leupeptin, pH 7.5). In addition, for measuring nonspecific binding (NSB), 0.1 μM unlabelled human Urocortin was incubated with 1 μg of human CRF receptor expressing CHO cellular membrane fraction and 50 pM of ^125I-CRF in a binding assay buffer. After a binding reaction was carried out at room temperature for 1 hour, the membrane was entrapped on a glass filter (UniFilter plate GF-C/Perkin Elmer) by suction filtration using a cell harvester (Perkin Elmer), and washed with ice-cooled 50 mM Tris-HCl (pH 7.5). After drying the glass filter, a liquid scintillation cocktail (Microscinti 0, Perkin Elmer) was added, and the radioactivity of ^125I-CRF remaining on a glass filter was measured using Topcount (Perkin Elmer).
(TB−SB)/(TB−NSB)×100 (SB: radioactivity when a compound is added, TB: maximum binding radioactivity, NSB: nonspecific binding radioactivity) was calculated to obtain a binding inhibitory rate under the presence of 1,000 nM or 100 nM of each test substances.

The structures appear in SMILES notation.

As to `CCCN(CCC)c1cccc2nc(Nc3c(C)cc(C)cc3C)n(C)c12` [Example 26, N^2-Mesityl-1-methyl-N^7,N^7-dipropyl-1H-benzimidazole-2,7-diamine], the inhibition – broadly, how much of the control response was suppressed – at 1 µM is > 80%. In the case of `CCCN(CCC)c1cccc2nc(Nc3c(C)cc(C)cc3Cl)n(C)c12` [Example 42, N^2-(2-chloro-4,6-dimethylphenyl)-1-methyl-N^7,N^7-dipropyl-1H-benzimidazole-2,7-diamine] it was > 80%.

As to `CCCN(CCC)c1cccc2nc(Nc3cc(OC)c(OC)cc3C)n(C)c12` [Example 46, N^2-(4,5-dimethoxy-2-methylphenyl)-1-methyl-N^7,N^7-dipropyl-1H-benzimidazole-2,7-diamine], the inhibition at 1 µM was > 80%. Consider `COc1ccc(N(c2cccc3nc(Nc4c(C)cc(Cl)cc4OC)n(C)c23)C(C)C)cc1` [Example 145, N^2-(4-chloro-2-methoxy-6-methylphenyl)-N^7-isopropyl-N^7-(4-methoxyphenyl)-1-methyl-1H-benzimidazole-2,7-diamine], for which the inhibition at 1 µM is > 80%. In the case of `CCC1CCCCN1c1cccc2nc(Nc3c(C)cc(Br)cc3OC)n(C)c12` (centres unmarked) [Example 183, N-(4-Bromo-2-methoxy-6-methylphenyl)-7-(2-ethyl-1-piperidinyl)-1-methyl-1H-benzimidazol-2-amine] it was > 80%.
